Earlier results in US20240352228A1, “NOVEL FLAME RETARDANT” (Chemische Fabrik Budenheim KG, priority 2021, published 2024).

Conditions: general statement in description, no method given

- decomposition temperature: > 350 °C
Compound: Nc1nc(N)nc(N)n1 [melamine, Melamine]
